On the set-up of series [1]: species or system subject. The settings on record: in vivo. An excerpt: One of the most common methods for determining the rate of metabolism of methacetin is to analyze the rate of metabolism of the methoxy group (CH3O) of methacetin to carbon dioxide, which is excreted in exhaled breath. To distinguish the carbon dioxide derived from methacetin from all other sources of carbon dioxide, the methoxy group is labeled with ^13C, a stable isotope of carbon. Thus, all the CO2 derived from methacetin will contain ^13C (^13CO2) in contrast to all other sources of CO2, which will contain approximately 99%^12C, and 1% ^13C, the naturally abundant isotope. Thus, the rate of excretion of ^13CO2 (normalized to ^12CO2) above background following the administration of methacetin-methoxy-^13C indicates its rate of metabolism, which relates to the hepatic cell “health” and to the functional mass of the liver.
The curve depicts the rate of metabolism of ^13C-Methacetin in % dose/hour as measured in breath. The peak of the curve (marked by the arrow) appears after 0.4 h (hours). The PDR peak height is approximately at 23.5% dose/hour.
The following are two examples that illustrate this phenomenon. […]

Series [2] can be described thus: Two weeks stability of methacetin formulations (HPLC assay, appearance). In kind it is physicochemical. The following applies: 37-38 mg/100 mL methanol, room temperature, at least one week. Here is the method: In the first three items, formulations containing 75 mg methacetin/200 mL solvent were prepared: 2-1. Formulation-1: 76.04 mg methacetin; 62.94 mg SLS; water to final volume of 200 mL. 2-2. Formulation-2: 75.87 mg methacetin; 4 mL PPG-400; water to final volume of 200 mL. 2-3. Formulation-3: 76.66 mg methacetin; 4 mL tween-80; water to final volume of 200 mL. The first three formulated solutions were stored at room temperature protected from light. The fourth solution was stored in an incubator for 3 months at 40° C. On each testing interval, the formulated samples were analyzed according to the following method: [table] The samples were diluted to a concentration of about 37 ppm (37 mg in 1000 ml) and analyzed against a standard solution at the same concentration. The standard was provided by the sponsor (Adrich 428264 batch: UI 2335). Purity of 100% was used in calculations. The methacetin sample that was used for the formulations was also used as a standard for the HPLC determination. […] The stock solution was diluted ×10 in mobile phase solution before the HPLC analysis. The assay was conducted according to Analyst SOP No. 05-001-03, and the HPLC method that was provided by the sponsor.

Series [3] is described as follows: Conditions for dissolving methacetin: dissolving time. In kind it is physicochemical. The following applies: room temperature (approximately 25° C.).
Description: It was evaluated whether the thermal cycle for dissolving the API (active pharmaceutical ingredient, such as methacetin) can be eliminated from or at least lowered in the process. Cold vortexing, as well as the assistance of excipients acceptable by the international pharmaceutical regulations and capable of assisting in improving the dissolution of the API, were utilized.
Experimentation trials were performed, in order to eliminate the heating stage while dissolving the API (methacetin) in purified water.
Therefore, alternative directions for improving the API dissolution were tried. Solvents capable of dissolving the API and approvable for utilization in pharmaceutical preparations were utilized for this task.
30% by volume of the purified water of the preparation was replaced by the alternative solvent. The dissolving time of each preparation was recorded.
Therefore, a gradient of temperature was utilized to completely dissolve the methacetin in the preparation. An in-process control testing was applied at this stage. A UV specific absorbance analytical method, without further manipulation of the sample, was utilized for confirming that the solid has been completely dissolved in the preparation.
A short description of series [4]: Decomposition of methacetin on heating in solution. It counts as physicochemical. The following applies: heating at 80° C. for three hours. Here is the method:
There is thus provided, according to some embodiments, a method of controlled dissolution of methacetin. Methacetin seems to be stable after short term warming to <80° C. in solution. […] Therefore, according to an embodiment of the invention, a solution of methacetin may be prepared by dissolution in warm water.

The conditions of series [5]: as known in the art; cited from earlier work.

Turning to `CC(=O)Nc1ccc(O[13CH3])cc1` [^13C-Methacetin, methacetin-methoxy-^13C], in series [1], the PDR peak height is recorded as about 23.5 % dose/hour and the “time of appearance of the PDR peak” value turned out to be 0.4 h.
`COc1ccc(NC(C)=O)cc1` [methacetin, N-(4-Methoxyphenyl)acetamide]: the “stability of methacetin stock solution” value in series [2] is “stable”. Moreover, the dissolution in water entry in series [3] was “does not dissolve well”. In series [4], this molecule came in with a methacetin decomposed of 0.018%. In addition, the hepatic extraction ratio result in series [5] is on record as “more than 0.8”.

Source of the values: patent publication US10827969B2, “Breath test device and method” (EXALENZ BIOSCIENCE LTD., priority 2005, dated 2020).
